How the values were obtained:
[1] = test system: NCI-H358 (ATCC-CRL5807) cells; test: Cell viability assay, G12C (NCI-H358); assay type: cell-based, human; conditions: Homo sapiens; KRAS cell viability, NCI-H358, 72 hrs, Cell Counting Kit-8
How it was run: (§1)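 After overnight attachment, cells received compounds (0.5% DMSO) for 72 hrs; viability was then quantified with CCK-8, reading OD450 minus OD650, and IC50 values were obtained from a 4-parameter concentration-response fit.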

[2] = test system: AGS (ATCC-CRL-1739) cells; test: Cell viability assay, G12D (AGS); assay type: cell-based, human; conditions: Homo sapiens, KRAS cell viability, 72 hrs, Cell Counting Kit-8
How it was run: as §1

[3] = test system: SW620 (ATCC-CCL-227); test: Cell viability assay, G12V (SW620); assay type: cell-based, human; conditions: Homo sapiens, SW-620; KRAS cell viability, SW620, 72 hrs, Cell Counting Kit-8
How it was run: as §1

[4] = molecular target: KRAS G12C-BRAF complex (Homo sapiens (Human), UniProt P01116+P62937, G12C); test: KRAS-BRAF with CYPA (500 nM) interaction assay (TR-FRET), G12C; assay type: biochemical
[5] = molecular target: KRAS G12D binding to BRAF (Homo sapiens (Human), UniProt P01116+P62937, G12D); test: KRAS-BRAF with CYPA (500 nM) interaction assay (TR-FRET), G12D; assay type: biochemical
[6] = molecular target: KRAS G12V binding to BRAF (Homo sapiens (Human), UniProt P01116+P62937, G12V); test: KRAS-BRAF with CYPA (500 nM) interaction assay (TR-FRET), G12V; assay type: biochemical
How it was run: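 A TR-FRET assay measured how compound, in the presence of CYPA, disrupts binding of GMPPNP-loaded 6His-KRAS G12V to BRAF. The buffer contained 25 mM HEPES PH=7.4, 0.002% Tween20, 0.1% BSA, 100 mM NaCl, 5 mM MgCl2 and 10 μM GMPPNP. Compounds ran as a 16-point 3-fold dilution series from 10 μM for 3 hours.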

[7] = test system: phosphorylation of ERK, KRAS G12C in NCJ-H358 cells; test: pERK inhibition assay, KRAS G12C; assay type: cell-based, human; conditions: Homo sapiens, 4 hours
How it was run: (§2)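 Plate cells, attach overnight; add compound (0.5% DMSO) for 4 h; fix in 4% formaldehyde, permeabilize with chilled methanol; block; incubate pERK antibody overnight at 4 °C, then HRP secondary; develop with TMB, stop, read OD450; fit 4-parameter curve for IC50.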

[8] = test system: phosphorylation of ERK, KRAS G12D in AGS cells; test: pERK inhibition assay, KRAS G12D; assay type: cell-based, human; conditions: Homo sapiens, 4 hours
Procedure: This assay is to measure the ability of test compounds in inhibiting the phosphorylation of ERK, the downstream signaling of KRAS G12C in NCJ-H358 cells, KRAS G12D in AGS cells, and KRAS G12V in SW620. NCJ-H358 (ATCC-CRL5807) cells, AGS (ATCC-CRL-1739) cells, SW620 (ATCC-CCL-227) cells were all grown and maintained using RPMI-1640 medium (Thermo Fisher Scientific) with 10% fetal bovine serum and 1% penicillin/streptomycin. On the day prior to compound addition, cells were plated in tissue culture-treated 96 well plates (Corning-3699) at a density of 30,000 cell/well, 20,000 cell/well, 30,000 cell/well for NCJ-H358, AGS and SW620 respectively, and allowed for attachment overnight. Diluted compounds were then added in a final concentration of 0.5% DMSO. After 4 hours of incubation, the medium was removed, 100 μL of 4% formaldehyde was added, and the assay plates were incubated at room temperature for 20 minutes. The plates were then washed once with phosphate buffered saline (PBS), and permeabilized with 100 μL of chilled methanol for 10 minutes. Non-specific antibody binding to the plates was blocked using 50 μL 1×BSA blocking buffer (Thermo-37520, 10-fold dilution by Phosphate-Buffered Saline Tween (PBST) for at least 1 hour at room temperature.
The amount of phosphor-ERK was determined using an antibody specific for phosphorylated form of ERK. Primary antibody (pERK, CST-4370, Cell Signaling Technology) was diluted 1:300 in blocking buffer, with 50 μL aliquoted to each well, and incubated overnight at 4′° C. Cells was washed five times for 5 minutes with PBST. Secondary antibody ([…] anti-rabbit IgG, CST-7074, Cell Signaling Technology) was diluted 1:1000 in blocking buffer, and 50 μL was added to each well and incubated 1-2 hrs at room temperature. Cells was washed 5 times for 5 minutes with PBST, 100 μL TMB ELISA substrate (abcam-ab171523) were added and gently shake for 20 minutes. 50 μL stop solution (abcam-ab171529) were added, and then read the signal (OD450) by EnVision.
IC50 was determined by fitting a 4-parameter sigmoidal concentration response model.

[9] = test system: phosphorylation of ERK, KRAS G12V in SW620; test: pERK inhibition assay, KRAS G12V; assay type: cell-based, human; conditions: Homo sapiens, SW-620, SW620, 4 hours
How it was run: as §2

KRAS G12D binding to BRAF, sequence (P01116-2 other isoform, or with tags, fused parts or gaps G12D): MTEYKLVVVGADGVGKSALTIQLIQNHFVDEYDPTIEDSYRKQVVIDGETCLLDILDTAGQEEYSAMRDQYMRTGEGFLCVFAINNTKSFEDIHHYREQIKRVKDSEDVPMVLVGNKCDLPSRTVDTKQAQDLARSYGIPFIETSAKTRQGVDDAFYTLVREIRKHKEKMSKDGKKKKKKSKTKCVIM
KRAS G12D binding to BRAF, sequence (P62937 whole entry): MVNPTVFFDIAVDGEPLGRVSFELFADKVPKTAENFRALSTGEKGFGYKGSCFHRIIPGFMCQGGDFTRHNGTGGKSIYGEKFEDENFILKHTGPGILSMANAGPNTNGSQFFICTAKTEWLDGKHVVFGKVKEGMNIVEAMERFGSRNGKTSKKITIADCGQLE
KRAS G12V binding to BRAF, sequence (P01116-2 other isoform, or with tags, fused parts or gaps G12V): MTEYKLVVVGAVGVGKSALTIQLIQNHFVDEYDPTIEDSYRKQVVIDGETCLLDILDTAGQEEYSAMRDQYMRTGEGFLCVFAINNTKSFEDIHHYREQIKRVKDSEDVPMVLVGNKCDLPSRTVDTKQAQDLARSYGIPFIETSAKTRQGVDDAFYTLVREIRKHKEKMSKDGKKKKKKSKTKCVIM
KRAS G12V binding to BRAF, sequence (P62937 whole entry): as the sequence (P62937 whole entry) above
KRAS G12C-BRAF complex, sequence (P01116-2 other isoform, or with tags, fused parts or gaps G12C): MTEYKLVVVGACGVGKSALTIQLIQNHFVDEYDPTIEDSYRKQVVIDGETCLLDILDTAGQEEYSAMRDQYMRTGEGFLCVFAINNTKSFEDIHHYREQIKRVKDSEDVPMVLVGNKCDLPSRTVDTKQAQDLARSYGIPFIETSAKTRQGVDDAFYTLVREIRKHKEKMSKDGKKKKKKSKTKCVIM
KRAS G12C-BRAF complex, sequence (P62937 whole entry): as the sequence (P62937 whole entry) above

| SMILES | IC50 [1] [nM] | IC50 [2] [nM] | IC50 [3] [nM] | IC50 [4] [nM] | IC50 [5] [nM] | IC50 [6] [nM] | IC50 [7] [nM] | IC50 [8] [nM] | IC50 [9] [nM] |
| --- | --- | --- | --- | --- | --- | --- | --- | --- | --- |
| CCn1c(-c2cc(N3CCN(C)CC3)cnc2[C@H](C)OC)c2c3cc(c(F)cc31)-c1csc(n1)C[C@H](NC(=O)[C@H](C(C)C)N1CC[C@]3(CCN(C(=O)[C@H](F)Cl)C3)C1=O)C(=O)N1CCC[C@H](N1)C(=O)OCC(C)(C)C2 (atropisomer, axis not shown; (M)) [Example 31, (2S)-2-[(5S)-7-[(2R)-2-chloro-2-fluoro-acetyl]-1-oxo-2,7-diazaspiro[4.4]nonan-2-yl]-N-[(7S,13S)-21-ethyl-24-fluoro-(20M)-20-[2-[(1S)-1-methoxyethyl]-5-(4-methylpiperazin-1-yl)-3-pyridyl]-17,17-dimethyl-8,14-dioxo-15-oxa-4-thia-9,21,27,28-tetrazapentacyclo[17.5.2.1^2,5.1^9,13.0^22,26]octacosa-1(25),2,5(28),19,22(26),23-hexaen-7-yl]-3-methyl-butanamide] | < 1 | 237 | 44 | 44 | > 10000 | 1980 | 5 | 24 | 12 |
| CCn1c(-c2cc(N3CCN(C)CC3)cnc2[C@H](C)OC)c2c3cc(c(F)cc31)-c1csc(n1)C[C@H](NC(=O)[C@H](C(C)C)N(C)C(=O)[C@H]1CCN(C(=O)[C@H](F)Cl)C1)C(=O)N1CCC[C@H](N1)C(=O)OCC(C)(C)C2 (atropisomer, axis not shown; (M)) [Example 32, (3S)-1-[(2R)-2-chloro-2-fluoro-acetyl]-N-[(1S)-1-[[(7S,13S)-21-ethyl-24-fluoro-(20M)-20-[2-[(1S)-1-methoxyethyl]-5-(4-methylpiperazin-1-yl)-3-pyridyl]-17,17-dimethyl-8,14-dioxo-15-oxa-4-thia-9,21,27,28-tetrazapentacyclo[17.5.2.1^2,5.1^9,13.0^22,26]octacosa-1(25),2,5(28),19,22(26),23-hexaen-7-yl]carbamoyl]-2-methyl-propyl]-N-methyl-pyrrolidine-3-carboxamide] | < 1 | 792 | 430 | 56 | > 10000 | > 10000 | 1 | 14 | 21 |
| CCn1c(-c2cc(N3CCN(CC(F)(F)F)CC3)cnc2[C@H](C)OC)c2c3cc(c(F)cc31)-c1csc(n1)C[C@H](NC(=O)[C@H](C(C)C)N(C)C(=O)[C@H]1CCN(C(=O)[C@H](F)Cl)C1)C(=O)N1CCC[C@H](N1)C(=O)OCC(C)(C)C2 (atropisomer, axis not shown; (M)) [Example 33, (3S)-1-[(2R)-2-chloro-2-fluoro-acetyl]-N-[(1S)-1-[[(7S,13S)-21-ethyl-24-fluoro-(20M)-20-[2-[(1S)-1-methoxyethyl]-5-[4-(2,2,2-trifluoroethyl)piperazin-1-yl]-3-pyridyl]-17,17-dimethyl-8,14-dioxo-15-oxa-4-thia-9,21,27,28-tetrazapentacyclo[17.5.2.1^2,5.1^9,13.0^22,26]octacosa-1(25),2,5(28),19,22(26),23-hexaen-7-yl]carbamoyl]-2-methyl-propyl]-N-methyl-pyrrolidine-3-carboxamide] | < 1 | 338 | 39 | 18 | > 10000 | > 10000 | 4 | 19 | 8 |

— patent US20250206761A1, “HALOINDOLE MACROCYCLIC COMPOUNDS FOR THE TREATMENT OF CANCER” (Hoffmann-La Roche Inc., priority 2022, published 2025)
